From paper PMC6273799, “The Interference of Selected Cytotoxic Alkaloids with the Cytoskeleton: An Insight into Their Modes of Action” (Molecules, 2016)
Read-outs that look alike come from different tables or passages of the source.

How the values were obtained:
Hela cells [1] = assay: Cell cycle analysis by flow cytometry (propidium iodide); type: cell-based, human
Experimental: Cell cycle analysis was carried out as established in our laboratory. Hela cells (5 × 10^5) were seeded in 6-well plates and treated with different concentrations of alkaloids for 24 h. Cells were then collected, centrifuged and fixed in 70% ice-cold ethanol for at least 8 h. After the washing steps, cells were treated with 0.2 mg/mL RNase A for 30 min at 37 °C and then stained with 0.1 mg/mL propidium iodide. Samples were analyzed using a FACScan flow cytometer (Becton Dickinson, Heidelberg, Germany). Data were analyzed using Cell Quest™ Pro software (Becton Dickinson) and Microsoft Excel 2013 (Microsoft Corporation, Redmond, WA, USA).

U2OS cells = assay: MTT cytotoxicity assay, U2OS; type: cell-based, human; conditions: 48 h, mean ± SD
Experimental: (§1) The anti-proliferative effects of alkaloids were assessed using the MTT assay, as previously described. In brief, 1 × 10^4 cells were seeded in 96-well-plates and incubated with serial dilutions of alkaloids for 48 h (Hela, U2OS) and 72 h (MCF-7). MTT solution was then added and incubated for 2 h. After the addition of DMSO, the plate was read at 570 nm using the Tecan infinite M200 Pro (Tecan, Crailsheim, Germany).
(§2) All experiments were performed at least three times. Data are presented as the mean ± standard deviation. Statistical comparison between controls and different treatments were performed by an unpaired Student’s t-test. Significance was considered at p < 0.05.

MCF-7 cells = assay: MTT cytotoxicity assay, MCF-7; type: cell-based, human; conditions: mean ± SD
Experimental: as §1, §2

[2] = tested on: microtubules in U2OS cells; assay: Imaging of microtubule network in α-tubulin-GFP U2OS cells; type: cell-based, human
Experimental: α-Tubulin-GFP U2OS cells (1 × 10^5) were seeded in 24-well plates and grown for 24 h. […] The images were analyzed using BZ-II Analyzer software (version 2.1, Keyence, Neu-Isenburg, Germany).

[3] = tested on: actin filaments in Hela cells; assay: Imaging of actin filaments in Hela cells (actin-RFP, immunofluorescence); type: cell-based, human; conditions: high concentration (IC80)
Experimental: (§3) Then, cells were fixed in 4% paraformaldehyde at 4 °C for 20 min and permeabilized by 0.3% (v/v) Triton X-100 for 10 min. Nonspecific binding sites on the coverslips were blocked by incubating them with 5% FBS for 1 h. To stain the microtubules, cells were firstly incubated with 1:100 mouse anti-α-tubulin monoclonal IgG for 1 h and then with 1:200 goat anti-mouse […] for 1 h. Cells were then incubated with […] Atto 390 phalloidin for 45 min to stain the actin filaments and 20 μg/mL propidium iodide for 30 min to stain the cell nucleus/chromosomes. After washing steps, the coverslips were mounted by mowiol. Microtubules, actin filaments and cell nucleus/chromosomes were observed and analyzed using the Keyence BZ-9000 microscope as described before.
Hela cells (2 × 10^4) were seeded in 24-well plates and mixed with CellLight® Actin-RFP BacMam 2.0, which is a fusion construct of human actin and TagRFP, providing an accurate and specific targeting to cellular actin filaments. After 16 h of incubation, 200 μL of different concentrations of alkaloids (IC80, IC50) were added into each well, and the cells were analyzed as described above (Section 4.4).

[4] = molecular target: T1, tubulin plus microtubule-associated proteins (MAPs) from porcine brains (Sus scrofa, UniProt P02550+P02554); assay: In vitro tubulin polymerization assay (light scattering at 360 nm); type: biochemical; conditions: for IC50: 5.6 mg/mL tubulin-MAPs, 37 °C, 40 min, read-out: IC50 inhibition of tubulin polymerization in vitro; for effect on tubulin polymerization in vitro: tubulin-MAPs
T1 construct: prepared from porcine brains (freshly obtained from a local slaughter house) by two cycles of polymerization and depolymerization; from tissue; host or cells: porcine brain
T1 sequence (P02550 whole entry): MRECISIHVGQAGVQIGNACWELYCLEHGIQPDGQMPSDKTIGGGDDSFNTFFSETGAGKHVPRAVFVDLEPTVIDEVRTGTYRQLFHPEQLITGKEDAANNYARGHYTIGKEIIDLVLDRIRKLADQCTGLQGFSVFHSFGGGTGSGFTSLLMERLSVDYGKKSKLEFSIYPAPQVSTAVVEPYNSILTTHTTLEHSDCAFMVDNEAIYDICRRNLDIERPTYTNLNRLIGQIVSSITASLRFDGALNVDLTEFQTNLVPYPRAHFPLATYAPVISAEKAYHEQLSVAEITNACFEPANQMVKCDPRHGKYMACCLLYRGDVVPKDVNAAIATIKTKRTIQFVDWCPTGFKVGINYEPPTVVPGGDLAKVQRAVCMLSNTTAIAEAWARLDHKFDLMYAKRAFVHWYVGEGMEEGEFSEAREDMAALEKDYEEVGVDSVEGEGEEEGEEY
T1 sequence (P02554 whole entry): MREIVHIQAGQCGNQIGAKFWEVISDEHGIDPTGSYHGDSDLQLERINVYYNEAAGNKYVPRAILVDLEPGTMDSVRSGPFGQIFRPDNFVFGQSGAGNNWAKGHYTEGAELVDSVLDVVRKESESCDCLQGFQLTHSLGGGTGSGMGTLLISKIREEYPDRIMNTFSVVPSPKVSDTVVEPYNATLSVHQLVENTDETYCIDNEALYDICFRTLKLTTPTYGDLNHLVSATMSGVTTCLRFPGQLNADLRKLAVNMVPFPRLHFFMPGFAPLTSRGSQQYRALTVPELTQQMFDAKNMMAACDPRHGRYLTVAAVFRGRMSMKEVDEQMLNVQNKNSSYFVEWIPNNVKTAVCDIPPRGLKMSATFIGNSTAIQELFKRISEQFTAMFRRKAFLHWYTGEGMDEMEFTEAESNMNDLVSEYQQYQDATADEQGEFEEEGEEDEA
Experimental: Tubulin plus microtubule-associated proteins (MAPs) were prepared from porcine brains (freshly obtained from a local slaughter house) by two cycles of polymerization and depolymerization according to a standard protocol. […] The rate and extent of the polymerization reaction were monitored by light scattering at 360 nm using Tecan infinite M200 Pro.
as §2

[5] = tested on: Hela, MCF-7 and U2OS cells; assay: MTT cytotoxicity, summary over three cell lines; type: cell-based; conditions: Homo sapiens, MCF-7, U2OS
Experimental: as §1, §2

[6] = tested on: microtubules in Hela cells; assay: Immunofluorescence staining of microtubules and spindles in Hela cells; type: cell-based, human; conditions: for effect on mitotic spindles: Hela metaphase cells, IC50, 24 h; for effect on interphase cellular microtubules: Hela, immunofluorescence, IC80
Experimental: as §3

Hela cells [7] = assay: MTT cytotoxicity assay, Hela; type: cell-based, human; conditions: 48 h, mean ± SD
Experimental: as §1, §2

[8] = U2OS α-tubulin-GFP, IC80 and IC50, 2-48 h
[9] = read-out: IC50 values, range over three cell lines
[10] = read-out: IC50 values, range over all three cell lines

| IC50 [4] | SMILES | effect on cell cycle (Hela cells [1]; 24 h) | IC50 (U2OS cells; Homo sapiens, U2OS) | IC50 (MCF-7 cells; Homo sapiens, MCF7, 72 h) | effect on microtubule network [2, 8] | effect on actin filaments [3] | IC50 ([4]; mean ± SD) | IC50 [5, 9] | effect on mitotic spindles [6] | IC50 (Hela cells [7]; Homo sapiens, HeLa) | other results |
| --- | --- | --- | --- | --- | --- | --- | --- | --- | --- | --- | --- |
| – | COc1ccc2c(c[n+](C)c3c4cc5c(cc4ccc23)OCO5)c1OC [Chelerythrine, chelerythrine] | did not change the proportion of mitotic cells | 2880 ± 760 nM | 7.63 ± 3.43 µM | displayed similar effects as sanguinarine | significant reduction of actin filament mass | 206 ± 4.2 µM | 920 to 7630 nM | abnormal, but still bipolar spindles | 3850 ± 2100 nM | effect on interphase cellular microtubules [6]: significantly reduced the mass of microtubules |
| – | CN1Cc2c(ccc3c2OCO3)[C@@H]2[C@H]1c1cc3c(cc1C[C@@H]2O)OCO3 [Chelidonine, chelidonine] | – | 3860 ± 1990 nM | 3.85 ± 0.1 µM | – | significant reduction of actin filament mass | 34.5 ± 9.47 µM | 920 to 7630 nM | multipolar spindles with chromosome congression failure | 1130 ± 370 nM | G2/M population (Hela cells [1]; 2.5 μM, 24 h): 88.27% ± 0.99%; effect on microtubule network [2]: significantly decreased cellular microtubule mass |
| – | COc1cc2c(c(OC)c1OC)-c1ccc(OC)c(=O)cc1[C@@H](NC(C)=O)CC2 [Colchicine, colchicine] | – | – | – | reduced the mass of the microtubule network | No apparent changes of actin filaments | – | – | completely depolymerized spindle | – | G2/M population (Hela cells [1]; 0.1 μM, 24 h): 89.66% ± 2.04% |
| – | C/C1=C/C(=O)O[C@@H]2C[C@@H](CC[C@H](C)/C=C\CC1)O[C@@](O)([C@@H]1CSC(=O)N1)C2 [Latrunculin B, latrunculin B] | – | – | – | immediately changed the cell morphology | extensive depolymerization of the actin network | – | – | – | – | G2/M population (Hela cells [1]; 7 μM, 24 h): 80.05% ± 11.89%; IC50 (U2OS cells): 5480 ± 680 nM; IC50 (MCF-7 cells; 72 h): 36.8 ± 2.25 µM; IC50 (Hela cells [7]): 7130 ± 610 nM |
| > 1000 µM | COc1ccc2c(c1OC)C(=O)O[C@@H]2[C@H]1c2c(cc3c(c2OC)OCO3)CCN1C [Noscapine, noscapine] | – | 60800 ± 12200 nM | 35.2 ± 8.18 µM | remarkably depolymerized the microtubule network and reduced its mass | No apparent changes of actin filaments | – | – | multipolar spindles with chromosome congression failure | 16800 ± 9790 nM | G2/M population (Hela cells [1]; 80 μM, 24 h): 73.42% ± 8.31% |
| – | CC(=O)O[C@H]1C(=O)[C@@]2(C)[C@H]([C@H](OC(=O)c3ccccc3)[C@]3(O)C[C@H](OC(=O)[C@H](O)[C@@H](NC(=O)c4ccccc4)c4ccccc4)C(C)=C1C3(C)C)[C@]1(OC(C)=O)CO[C@@H]1C[C@@H]2O [Paclitaxel, paclitaxel] | – | 230 ± 100 nM | 1.05 ± 0.43 µM | promoted the polymerization of microtubules | No apparent changes of actin filaments | 38.2 ± 3.33 µM | – | aberrant, but still bipolar spindles | 0.08 ± 0.1 nM | G2/M population (Hela cells [1]; 0.1 μM, 24 h): 80.37% ± 5.36% |
| > 1000 µM | CN1CCc2cc3c(cc2C(=O)Cc2ccc4c(c2C1)OCO4)OCO3 [Protopine, protopine] | – | 62400 ± 9900 nM | 67.3 ± 9.06 µM | notably enhanced the assembly of the microtubule network | No apparent changes of actin filaments | – | – | thickened spindle arrays | 27500 ± 11800 nM | G2/M population (Hela cells [1]; 250 μM, 24 h): 54.35% ± 11.26%; G2/M population (Hela cells [1]; 250.9 μM): 54.35% ± 11.26%; effect on tubulin polymerization in vitro [4]: did not affect tubulin polymerization |
| – | C[n+]1cc2c3c(ccc2c2ccc4cc5c(cc4c21)OCO5)OCO3 [Sanguinarine, sanguinarine] | did not change the proportion of mitotic cells | 920 ± 530 nM | 1.24 ± 0.21 µM | – | significant reduction of actin filament mass | 48.4 ± 3.73 µM | 920 to 7630 nM | had no impact on mitotic spindles | 1030 ± 40 nM | effect on microtubule network [2]: disrupted microtubule distribution and altered their morphology; effect on interphase cellular microtubules [6]: significantly reduced the mass of microtubules |
| – | CC[C@]1(O)C[C@@H]2CN(CCc3c([nH]c4ccccc34)[C@@](C(=O)OC)(c3cc4c(cc3OC)N(C)[C@H]3[C@@](O)(C(=O)OC)[C@H](OC(C)=O)[C@]5(CC)C=CCN6CC[C@]43[C@@H]65)C2)C1 [Vinblastine, vinblastine] | – | 0.1 ± 0.05 nM | 7e-05 ± 5e-05 µM | microtubules were extensively depolymerized and tubulin paracrystals were formed | No apparent changes of actin filaments | 1.42 ± 0.05 µM | – | depolymerized bipolar spindles | 0.02 ± 0.01 nM | G2/M population (Hela cells [1]; 10 nM, 24 h): 78.04% ± 14.78%; IC50 [5, 10]: 0.02 to 0.1 nM |

| SMILES | IC50 [4] | effect on cell cycle (Hela cells [1]; 24 h) | IC50 (U2OS cells; Homo sapiens, U2OS) | IC50 (MCF-7 cells; Homo sapiens, MCF7, 72 h) | effect on microtubule network [2, 8] | effect on actin filaments [3] | IC50 ([4]; mean ± SD) | IC50 [5, 9] | effect on mitotic spindles [6] | IC50 (Hela cells [7]; Homo sapiens, HeLa) | other results |
| --- | --- | --- | --- | --- | --- | --- | --- | --- | --- | --- | --- |
| COC(=O)C[C@](O)(CCCC(C)(C)O)C(=O)O[C@@H]1C(OC)=C[C@]23CCCN2CCc2cc4c(cc2[C@H]13)OCO4 [Homoharringtonine, homoharringtonine] | > 1000 µM | had no impact on the cell cycle | 3 ± 1.67 nM | 0.00087 ± 0.00045 µM | No obvious changes on the cellular microtubule network | No apparent changes of actin filaments | – | – | did not affect mitotic spindles | 9.03 ± 0.38 nM | effect on tubulin polymerization in vitro [4]: did not affect tubulin polymerization; IC50 [5, 10]: 0.87 to 9.03 nM |
